# US11427549B2, “Pyrimidinyloxy benzo-fused compounds as herbicides” (FMC Corporation, priority 2017, dated 2022)
# Tests used:
# [1] = test system: barnyardgrass (Echinochloa crus-galli); assay: Test A preemergence, barnyardgrass; format: in vivo; settings: 0 to 100 scale (0 no effect, 100 complete control)
# Source text: (§1) Seeds of plant species selected from barnyardgrass (Echinochloa crus-galli), kochia (Kochia scoparia), ragweed (common ragweed, Ambrosia elatior), ryegrass, Italian (Italian ryegrass, Lolium multiflorum), foxtail, giant (giant foxtail, Setaria faberii), foxtail, green (green foxtail, Setaria viridis) and pigweed (Amaranthus retroflexus) were planted into a blend of loam soil and sand and treated preemergence with a directed soil spray using test chemicals formulated in a non-phytotoxic solvent mixture which included a surfactant.
# (§2) At the same time, plants selected from these weed species and also wheat (Triticum aestivum), corn (Zea mays), blackgrass (Alopecurus myosuroides), and galium (catchweed bedstraw, Galium aparine) were planted in pots containing the same blend of loam soil and sand and treated with postemergence applications of test chemicals formulated in the same manner. Plants ranged in height from 2 to 10 cm and were in the one- to two-leaf stage for the postemergence treatment. Treated plants and untreated controls were maintained in a greenhouse for approximately 10 days, after which time all treated plants were compared to untreated controls and visually evaluated for injury. […] A dash (-) response means no test result.
# kochia (Kochia scoparia) [2] = assay: Test A preemergence, kochia; format: in vivo; settings: 0 to 100 scale (0 no effect, 100 complete control)
# Source text: as §1, §2
# [3] = test system: ryegrass, Italian (Italian ryegrass, Lolium multiflorum); assay: Test A preemergence, ryegrass, Italian; format: in vivo; settings: 0 to 100 scale (0 no effect, 100 complete control)
# Source text: as §1, §2
# [4] = test system: foxtail, giant (giant foxtail, Setaria faberii); assay: Test A preemergence, foxtail, giant; format: in vivo; settings: 0 to 100 scale (0 no effect, 100 complete control)
# Source text: as §1, §2
# [5] = test system: pigweed (Amaranthus retroflexus); assay: Test A preemergence, pigweed; format: in vivo; settings: 0 to 100 scale (0 no effect, 100 complete control)
# Source text: as §1, §2
# [6] = test system: barnyardgrass (Echinochloa crus-galli); assay: Test A postemergence, barnyardgrass; format: in vivo; settings: 0 to 100 scale (0 no effect, 100 complete control)
# Source text: as §1, §2
# kochia (Kochia scoparia) [7] = assay: Test A postemergence, kochia; format: in vivo; settings: 0 to 100 scale (0 no effect, 100 complete control)
# Source text: as §1, §2
# [8] = test system: ragweed (common ragweed, Ambrosia elatior); assay: Test A postemergence, ragweed; format: in vivo; settings: 0 to 100 scale (0 no effect, 100 complete control)
# Source text: as §1, §2
# [9] = test system: ryegrass, Italian (Italian ryegrass, Lolium multiflorum); assay: Test A postemergence, ryegrass, Italian; format: in vivo; settings: 0 to 100 scale (0 no effect, 100 complete control)
# Source text: as §1, §2
# [10] = test system: foxtail, giant (giant foxtail, Setaria faberii); assay: Test A postemergence, foxtail, giant; format: in vivo; settings: 0 to 100 scale (0 no effect, 100 complete control)
# Source text: as §1, §2
# [11] = test system: pigweed (Amaranthus retroflexus); assay: Test A postemergence, pigweed; format: in vivo; settings: 0 to 100 scale (0 no effect, 100 complete control)
# Source text: as §1, §2
# [12] = test system: wheat (Triticum aestivum); assay: Test A postemergence, wheat; format: in vivo; settings: 0 to 100 scale (0 no effect, 100 complete control)
# Source text: as §1, §2
# corn (Zea mays) = assay: Test A postemergence, corn; format: in vivo; settings: 0 to 100 scale (0 no effect, 100 complete control)
# Source text: as §1, §2
# [13] = test system: blackgrass (Alopecurus myosuroides); assay: Test A postemergence, blackgrass; format: in vivo; settings: 0 to 100 scale (0 no effect, 100 complete control)
# Source text: as §1, §2
# [14] = test system: galium (catchweed bedstraw, Galium aparine); assay: Test A postemergence, galium; format: in vivo; settings: 0 to 100 scale (0 no effect, 100 complete control)
# Source text: as §1, §2
# rice (Oryza sativa) = assay: Test B flooded paddy test, rice; settings: Flood, 250 g ai/ha, applied to paddy water, 2-leaf stage, visually evaluated after 13 to 15 days
# [15] = test system: ducksalad (Heteranthera limosa); assay: Test B flooded paddy test, ducksalad; settings: Flood, 250 g ai/ha, applied to paddy water, 2-leaf stage, visually evaluated after 13 to 15 days
# [16] = test system: barnyardgrass (Echinochloa crus-galli); assay: Test B flooded paddy test, barnyardgrass; settings: Flood, 250 g ai/ha, applied to paddy water, 2-leaf stage, visually evaluated after 13 to 15 days
compound,measurement,setting,value
"O=C1OCC(CCCC(F)(F)F)c2c(Oc3ncc(Cl)cn3)cccc21 (stereo not drawn) [Compound 16, 5-[(5-Chloro-2-pyrimidinyl)oxy]-3,4-dihydro-4-(4,4,4,-trifluorobutyl)-1H-2benzopyran-1-one]","Plant response rating, Barnyardgrass",[1]; 31 g ai/ha,60
same,"Plant response rating, Barnyardgrass",[1]; 125 g ai/ha,100
same,"Plant response rating, Kochia",kochia (Kochia scoparia) [2]; 31 g ai/ha,10
same,"Plant response rating, Kochia",kochia (Kochia scoparia) [2]; 125 g ai/ha,100
same,"Plant response rating, Ryegrass, Italian",[3]; 31 g ai/ha,10
same,"Plant response rating, Ryegrass, Italian",[3]; 125 g ai/ha,70
same,"Plant response rating, Foxtail, Giant",[4]; 31 g ai/ha,80
same,"Plant response rating, Foxtail, Giant",[4]; 125 g ai/ha,100
same,"Plant response rating, Pigweed",[5]; 31 g ai/ha,100
same,"Plant response rating, Pigweed",[5]; 125 g ai/ha,100
same,"Plant response rating, Barnyardgrass",[6]; 31 g ai/ha,30
same,"Plant response rating, Barnyardgrass",[6]; 125 g ai/ha,80
same,"Plant response rating, Kochia",kochia (Kochia scoparia) [7]; 31 g ai/ha,80
same,"Plant response rating, Kochia",kochia (Kochia scoparia) [7]; 125 g ai/ha,100
same,"Plant response rating, Ragweed",[8]; 31 g ai/ha,10
same,"Plant response rating, Ragweed",[8]; 125 g ai/ha,50
same,"Plant response rating, Ryegrass, Italian",[9]; 31 g ai/ha,20
same,"Plant response rating, Ryegrass, Italian",[9]; 125 g ai/ha,80
same,"Plant response rating, Foxtail, Giant",[10]; 31 g ai/ha,30
same,"Plant response rating, Foxtail, Giant",[10]; 125 g ai/ha,90
same,"Plant response rating, Pigweed",[11]; 31 g ai/ha,80
same,"Plant response rating, Pigweed",[11]; 125 g ai/ha,100
same,"Plant response rating, Wheat",[12]; 31 g ai/ha,50
same,"Plant response rating, Wheat",[12]; 125 g ai/ha,50
same,"Plant response rating, Corn",corn (Zea mays); 31 g ai/ha,0
same,"Plant response rating, Corn",corn (Zea mays); 125 g ai/ha,40
same,"Plant response rating, Blackgrass",[13]; 31 g ai/ha,80
same,"Plant response rating, Blackgrass",[13]; 125 g ai/ha,90
same,"Plant response rating, Galium",[14]; 31 g ai/ha,90
same,"Plant response rating, Galium",[14]; 125 g ai/ha,100
same,"Plant response rating, Rice (0 to 100 scale, 0 is no effect, 100 is complete control)",rice (Oryza sativa),15
same,"Plant response rating, Ducksalad (0 to 100 scale, 0 is no effect, 100 is complete control)",[15],100
same,"Plant response rating, Barnyardgrass (0 to 100 scale, 0 is no effect, 100 is complete control)",[16],75
